Data set [1] deals with T1, Peroxisome proliferator-activated receptor gamma (Homo sapiens, UniProt P37231).
T1 sequence (P37231 whole entry): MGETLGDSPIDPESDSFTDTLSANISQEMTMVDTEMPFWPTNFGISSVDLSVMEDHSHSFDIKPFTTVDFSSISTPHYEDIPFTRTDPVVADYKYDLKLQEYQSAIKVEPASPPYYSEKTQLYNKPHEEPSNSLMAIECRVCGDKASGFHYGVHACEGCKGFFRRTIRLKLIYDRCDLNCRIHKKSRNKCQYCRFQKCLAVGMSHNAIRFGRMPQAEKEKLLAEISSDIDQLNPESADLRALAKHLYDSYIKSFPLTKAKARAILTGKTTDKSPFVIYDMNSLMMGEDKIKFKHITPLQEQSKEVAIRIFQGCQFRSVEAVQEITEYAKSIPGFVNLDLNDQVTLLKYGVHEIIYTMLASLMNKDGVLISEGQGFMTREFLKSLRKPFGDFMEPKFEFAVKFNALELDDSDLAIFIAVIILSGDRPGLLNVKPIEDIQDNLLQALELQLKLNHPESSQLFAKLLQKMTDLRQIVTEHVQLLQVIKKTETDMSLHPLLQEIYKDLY
In words: In vitro binding affinity for human peroxisome proliferator activated receptor gamma using scintillation proximity assay (SPA). In general terms: SPA uses beads or plates that emit light when radiolabelled molecules are held near them.

The target in data set [2] is T2, Peroxisome proliferator-activated receptor delta (Homo sapiens, UniProt Q03181).
T2 sequence (Q03181 whole entry): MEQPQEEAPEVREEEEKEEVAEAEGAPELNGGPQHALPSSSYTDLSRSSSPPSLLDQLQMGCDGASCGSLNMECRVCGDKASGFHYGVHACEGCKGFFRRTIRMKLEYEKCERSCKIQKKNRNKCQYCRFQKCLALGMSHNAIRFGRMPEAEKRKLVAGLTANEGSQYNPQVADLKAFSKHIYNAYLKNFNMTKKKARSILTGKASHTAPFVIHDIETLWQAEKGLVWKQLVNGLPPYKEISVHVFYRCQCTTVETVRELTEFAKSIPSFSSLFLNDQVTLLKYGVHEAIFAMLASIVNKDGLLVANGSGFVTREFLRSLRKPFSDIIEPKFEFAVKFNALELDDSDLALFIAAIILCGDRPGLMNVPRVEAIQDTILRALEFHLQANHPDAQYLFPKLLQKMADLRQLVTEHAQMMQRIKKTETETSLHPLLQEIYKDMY

For data set [3], the target named is T3, Peroxisome proliferator-activated receptor alpha (Homo sapiens, UniProt Q07869).
T3 sequence (Q07869 whole entry): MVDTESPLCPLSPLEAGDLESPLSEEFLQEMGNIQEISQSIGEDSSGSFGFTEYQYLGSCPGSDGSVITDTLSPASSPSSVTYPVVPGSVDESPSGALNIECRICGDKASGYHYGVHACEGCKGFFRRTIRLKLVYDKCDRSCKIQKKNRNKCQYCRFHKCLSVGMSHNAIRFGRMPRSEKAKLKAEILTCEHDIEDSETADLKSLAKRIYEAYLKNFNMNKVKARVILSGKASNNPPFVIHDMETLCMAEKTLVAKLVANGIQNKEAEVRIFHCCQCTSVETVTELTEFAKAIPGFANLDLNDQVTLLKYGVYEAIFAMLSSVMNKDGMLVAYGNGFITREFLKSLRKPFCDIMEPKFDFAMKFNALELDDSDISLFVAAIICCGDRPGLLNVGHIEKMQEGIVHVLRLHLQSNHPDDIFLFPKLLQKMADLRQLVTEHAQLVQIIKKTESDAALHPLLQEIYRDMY
Description: In vitro binding affinity for human peroxisome proliferator activated receptor alpha using scintillation proximity assay (SPA)

The target of data set [4] is T1, Peroxisome proliferator-activated receptor gamma. Description: (§1) In vitro transcriptional activation by human PPAR gamma Gal4 chimera.
Data set [5] concerns the target T3, Peroxisome proliferator-activated receptor alpha. In words: In vitro potency of PPAR gene activation against human Peroxisome proliferator activated receptor alpha using chimeric Gal4-hPPAR transactivation assay (TA).
A short description of data set [6]: Longer half-life in rat (p.o.) at 2.0 mpk. It is filed as ADME, organism-based. Conditions: in vivo, po, 2 mg/kg.
Data set [7] has as its system Rattus norvegicus. Description: Lower clearance in rat (i.v.) at 0.5 mpk. It is filed as ADME, organism-based. Conditions: in vivo, iv, 0.5 mg/kg.
Data set [8] in a line: as §1. Details: species or system Canis lupus familiaris.
Data set [9] has as its system Canis familiaris. Description: Lower clearance in dog (i.v.) at 0.5 mpk. Conditions: in vivo, iv, 0.5 mg/kg. It is filed as ADME, organism-based, Canis lupus familiaris.
The nature of data set [10]: Bioavailability in rat (dose 2.0 mg/kg p.o.). It is filed as ADME, organism-based. Conditions: in vivo, po.
Data set [11] can be described thus: Longer half-life in dog (i.v.) at 0.5 mpk. Type of data set: ADME, organism-based, Canis lupus familiaris. Conditions: in vivo, iv, 0.5 mg/kg.
The test system of data set [12] is Canis familiaris. In words: Dose-normalized area under curve in dog (p.o.) at 2.0 mpk. Type of data set: ADME, organism-based, Canis lupus familiaris. Conditions: in vivo, po, 2 mg/kg.
Data set [13] concerns Rattus norvegicus. In words: Dose-normalized area under curve in rat (p.o.) at 2.0 mpk. It is filed as ADME, organism-based. Conditions: in vivo, po, 2 mg/kg.
The test system of data set [14] is Cricetinae gen. sp. In words: In vivo percent change in triglyceride in hamsters at 10 mg/kg. It is filed as functional, Cricetulus griseus.
For the next data set, the system named is Mesocricetus auratus. Description: In vivo serum cholesterol in Golden Syrian hamsters at 3 mg/kg.
Data set [15] deals with Canis familiaris. Description: In vivo percent change in serum cholesterol in dogs at 3 mg/kg. Type of data set: functional, Canis lupus familiaris.
The subject of data set [16] is Cricetinae gen. sp. Description: In vivo percent change in serum cholesterol in hamsters at 10 mg/kg. It is filed as functional, Cricetulus griseus.
Data set [17] in a line: Dose-normalized area under curve in monkey (p.o.) at 2.0 mpk. It is filed as ADME. Conditions: cercopithecidae, in vivo, po, 2 mg/kg.
In data set [18] the test system is Cricetinae gen. sp. In words: In vivo percent change in triglyceride in hamsters at 3 mg/kg. Type of data set: functional, Cricetulus griseus.
The nature of data set [19]: Bioavailability in dog (p.o.) at 2.0 mpk. Type of data set: ADME, organism-based, Canis lupus familiaris. Conditions: in vivo, po, 2 mg/kg.
Data set [20] relates to Cricetinae gen. sp. Description: In vivo triglyceride in hamsters at 10 mg/kg. Type of data set: functional, Cricetulus griseus.
Data set [21] relates to Cricetinae gen. sp. In words: In vivo serum cholesterol in hamsters at 10 mg/kg. It is filed as functional, Cricetulus griseus.
Data set [22] deals with Cricetinae gen. sp. Description: In vivo percent change in serum cholesterol in hamsters at 3 mg/kg. Type of data set: functional, Cricetulus griseus.
A short description of data set [23]: Bioavailability in monkey (p.o.) at 2.0 mpk. It is filed as ADME, organism-based. Conditions: cercopithecidae, in vivo, po, 2 mg/kg.
In data set [24] the test system is Cricetinae gen. sp. Description: In vivo triglyceride in hamsters at 3 mg/kg. It is filed as functional, Cricetulus griseus.
In data set [25] the test system is Rattus norvegicus. Description: Dose-normalized area under curve in rat (i.v.) at 0.5 mpk. It is filed as ADME, organism-based. Conditions: in vivo, iv, 0.5 mg/kg.
Data set [26] concerns Canis familiaris. In words: In vivo percent change in serum cholesterol in dogs at 1 mg/kg. Type of data set: functional, Canis lupus familiaris.
A short description of data set [27]: Longer half-life in monkey (i.v.) at 0.5 mpk. Type of data set: ADME, organism-based. Conditions: cercopithecidae, in vivo, iv, 0.5 mg/kg.
Data set [28] is described as follows: Lower clearance in monkey (i.v.) at 0.5 mpk. Conditions: cercopithecidae, in vivo, iv, 0.5 mg/kg. Type of data set: ADME, organism-based.
In data set [29] the target is T4, Peroxisome proliferator-activated receptor gamma (Mus musculus, UniProt P37238).
T4 sequence (P37238 whole entry): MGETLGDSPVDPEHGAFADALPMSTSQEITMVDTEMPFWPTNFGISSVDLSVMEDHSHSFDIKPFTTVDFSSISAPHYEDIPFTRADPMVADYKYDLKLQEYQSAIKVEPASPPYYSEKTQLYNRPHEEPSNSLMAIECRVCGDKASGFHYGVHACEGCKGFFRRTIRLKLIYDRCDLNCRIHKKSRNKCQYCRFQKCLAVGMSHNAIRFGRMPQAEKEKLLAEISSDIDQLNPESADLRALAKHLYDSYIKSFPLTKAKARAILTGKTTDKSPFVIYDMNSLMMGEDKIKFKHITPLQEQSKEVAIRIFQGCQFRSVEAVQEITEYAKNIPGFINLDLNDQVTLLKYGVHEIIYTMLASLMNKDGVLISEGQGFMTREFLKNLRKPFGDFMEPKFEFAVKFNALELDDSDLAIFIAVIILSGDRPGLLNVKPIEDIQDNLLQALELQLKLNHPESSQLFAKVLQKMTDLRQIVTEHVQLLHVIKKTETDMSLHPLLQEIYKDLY
In words: In vitro transcriptional activation by PPAR gamma.

The nature of data set [30]: Longer half-life in rat (i.v.) at 0.5 mpk. It is filed as ADME, organism-based. Conditions: in vivo, iv, 0.5 mg/kg.
The target of data set [31] is T3, Peroxisome proliferator-activated receptor alpha. In words: In vitro transcriptional activation by human PPAR alpha Gal4 chimera; Not active.
Data set [32] concerns the target T1, Peroxisome proliferator-activated receptor gamma.
Description: In vitro binding affinity for human PPAR gamma receptor using scintillation proximity assay (SPA)
The target is the same in data set [33]. This is another data set of the same source.
Description: In vitro potency of PPAR gene activation against human PPAR gamma receptor using chimeric Gal4-hPPAR transactivation assay (TA)
In data set [34] the test system is Cricetinae gen. sp. In words: In vivo serum cholesterol in hamsters at 100 mg/kg. It is filed as functional, Cricetulus griseus.
The subject of data set [35] is Cricetinae gen. sp. In words: In vivo percent change in serum cholesterol in hamsters at 100 mg/kg. It is filed as functional, Cricetulus griseus.
The subject of data set [36] is Canis familiaris. In words: In vivo percent change in serum cholesterol in dogs at 50 mg/kg. Type of data set: functional, Canis lupus familiaris.
Data set [37] concerns Cricetinae gen. sp. In words: In vivo percent change in triglyceride in hamsters at 100 mg/kg. Type of data set: functional, Cricetulus griseus.

Usually IC50 stands for the concentration needed to halve the response being measured. As usually defined, the EC50 is the midpoint of the concentration-response curve. Regarding `CC1(C(=O)O)CCc2ccc(OCCCOc3ccc(Oc4ccccc4)cc3Cl)cc2O1` (stereo unspecified), the half-inhibitory concentration (IC50) in data set [1] was 1400 nM; in [2], greater than 15000 nM; in [3], 120 nM. For the same compound, the values for the EC50 in data set [4] and in [5] were 360 nM and 80 nM, respectively.

Broadly, the half-life is the time needed for the level to fall by half in the phase considered. The term bioavailability denotes the share of a dose that reaches the circulation, judged against a reference dose that is usually intravenous. As for `CC[C@]1(C(=O)O)CCc2ccc(OCCCOc3ccc(Oc4ccc(F)cc4)cc3Cl)cc2O1`, the half-life in [6] was 3.7 h; in data set [11], 10 h; in data set [27], 3.5 h; in [30], 4.6 h. Moreover, the figures for the Clp (in the data set on Rattus norvegicus [7]; in the data set with Canis familiaris [9]; in data set [28]) were 3.4 mL/min/kg, 3.5 mL/min/kg and 8.6 mL/min/kg, respectively. The 50% effective concentration (EC50) worked out at 140 nM in data set [8] and 150 nM in data set [29]. Also, the bioavailability in data set [10] was 48%; in data set [19], 92%; in data set [23] it was 43%. For the same compound, the nAUC was found to be 9.2 µM·h in the data set with Canis familiaris [12], 4.8 µM·h in the data set on Rattus norvegicus [13], 1.7 µM·h in data set [17] and 10 µM·h with Rattus norvegicus [25]. In data set [2], this compound returned an IC50 greater than 15000 nM. Also, the Change with Cricetinae gen. sp. [14] was -48%; in the data set on Canis familiaris [15] it was -31.6%; in the data set on Cricetinae gen. sp. [16], -40%; in the data set with Cricetinae gen. sp. [18], -27%; with Cricetinae gen. sp. [22], -21%; with Canis familiaris [26], -23.3%. For the same compound, the Activity turned out to be 85 mg/dL in the data set with Mesocricetus auratus, 159 mg/dL in the data set with Cricetinae gen. sp. [20], 65 mg/dL with Cricetinae gen. sp. [21] and 222 mg/dL in the data set with Cricetinae gen. sp. [24].

On to `CCC1(C(=O)O)CCc2ccc(OCCCOc3ccc(Oc4ccccc4)cc3F)cc2O1` (stereo unspecified), for which the IC50 is 4700 nM in data set [1], greater than 50000 nM in [2] and 370 nM in [3]. Further, the results for the concentration giving a half-maximal response (EC50) in data set [4] and in data set [5] were 1000 nM and 50 nM, respectively.

With `CCCc1cc(Oc2ccc(S(C)(=O)=O)cc2)ccc1OCCCOc1ccc2c(c1)OC(CC)(C(=O)O)CC2` (stereo unspecified), the EC50 result in data set [31] was “Not Active”; in data set [33], 2800 nM. Also, the IC50 was 370 nM in [32], greater than 50000 nM in [2] and greater than 15000 nM in [3].

Take `CCC1(C(=O)O)CCc2ccc(OCCCOc3ccc(Oc4ccccc4)cc3Cl)cc2O1` (stereo unspecified): the IC50 in data set [32] is 690 nM; in data set [2], greater than 15000 nM; in data set [3], 120 nM. For the same compound, the concentration for a half-maximal effect (EC50) in [33] amounted to 160 nM; in data set [5], 30 nM.

For `CCC1(C(=O)O)CCc2ccc(OCCCOc3ccc(Oc4ccccc4)cc3)cc2O1` (stereo unspecified), the IC50 is greater than 15000 nM in [1], greater than 50000 nM in [2] and 1700 nM in [3]. Further, the EC50 in data set [4] turned out to be 10000 nM; in data set [5], 220 nM.

Regarding `CC(C)OC(=O)C(C)(C)Oc1ccc(C(=O)c2ccc(Cl)cc2)cc1` [FENOFIBRATE], the Activity in the data set on Cricetinae gen. sp. [34] was found to be 67 mg/dL. The Change was -38% in the data set on Cricetinae gen. sp. [35], -16.3% in the data set with Canis familiaris [36] and -44% with Cricetinae gen. sp. [37].

The values are drawn from ChEMBL document CHEMBL1149176, “(2R)-2-ethylchromane-2-carboxylic acids: discovery of novel PPARalpha/gamma dual agonists as antihyperglycemic and hypolipidemic agents” (J Med Chem, 2004).
